Source: patent publication US12404265B2, “Substituted pyridine derivatives as SARM1 inhibitors” (Nura Bio, Inc., priority 2020, dated 2025)
pIC50: −log10 of the molar value.

The compounds below were run against T1, human SARM1(50-724) (Homo sapiens, UniProt Q6SZW1) (assay: SARM1 NADase biochemical assay (HPLC of NAD and NAM)). Conditions: 40 nM human SARM1(50-724), 0.3 mM NMN, 20 μM NAD, 60 minutes room temperature; dose-response from 100 μM, 1:3 dilution.
T1 construct: 40 nM human SARM1(50-724)
T1 sequence (Q6SZW1 50-724): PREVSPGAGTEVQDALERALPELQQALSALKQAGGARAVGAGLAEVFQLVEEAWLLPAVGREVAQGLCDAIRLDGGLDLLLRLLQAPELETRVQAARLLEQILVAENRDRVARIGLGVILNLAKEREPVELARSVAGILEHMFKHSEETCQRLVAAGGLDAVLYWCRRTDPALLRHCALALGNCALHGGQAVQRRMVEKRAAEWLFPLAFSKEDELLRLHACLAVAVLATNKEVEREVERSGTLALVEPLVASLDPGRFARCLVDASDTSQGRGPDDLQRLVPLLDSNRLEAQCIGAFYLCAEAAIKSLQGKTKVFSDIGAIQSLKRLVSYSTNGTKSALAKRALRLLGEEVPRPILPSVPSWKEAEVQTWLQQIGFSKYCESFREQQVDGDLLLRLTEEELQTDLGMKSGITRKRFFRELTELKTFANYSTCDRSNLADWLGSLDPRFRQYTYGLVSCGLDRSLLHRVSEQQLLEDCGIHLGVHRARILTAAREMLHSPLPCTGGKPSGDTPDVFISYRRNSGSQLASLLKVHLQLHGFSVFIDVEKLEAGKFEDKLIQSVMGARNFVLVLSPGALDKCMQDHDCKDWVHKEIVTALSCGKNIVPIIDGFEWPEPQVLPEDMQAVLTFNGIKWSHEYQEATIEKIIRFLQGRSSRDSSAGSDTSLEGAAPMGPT
Procedure: Each reaction was run at a volume of 20 μL containing 50 μM compound (dissolved in DMSO; final concentration of DMSO is 1% v/v), 40 nM human SARM1(50-724), 0.3 mM NMN, 20 μM NAD, 1 mM TCEP, 25 mM HEPES pH 7.4, 10 mM KCl and 10 mM MgCl2. The reaction was incubated at room temperature for 60 minutes and quenched with 20 μL of 0.4% formic acid. The samples were run on Agilent HPLC 1260 Infinity II with Synergi 2.5 μM Fusion-RP 100 Å (100×3.0 mm) LC column from Phenomenex. Total run time for each sample was 4 minutes. The run was isocratic with 1.5% methanol in 40 mM ammonium acetate pH 6.0. Samples were run at a flow rate of 0.8 mL/min at 55° C. Peak areas of NAD and NAM were determined using OpenLAB CDS (Chem Station edition) software. For dose-response, the compound was diluted serially 1:3 in DMSO and added to the reaction starting at a final compound concentration of 100 μM in 1% DMSO.

First: Cc1c(-c2ccncc2)n[nH]c1NC(=O)C(F)Cc1ccc(Cl)cc1 (racemic) [Example 18, (rac)-3-(4-chlorophenyl)-2-fluoro-N-(4-methyl-3-(pyridin-4-yl)-1H-pyrazol-5-yl)propanamide]
Second: Cc1c(-c2ccncc2)n[nH]c1NC(=O)C(F)Cc1ccc(C#N)c(F)c1 (racemic) [Example 70, (rac)-3-(4-Cyano-3-fluorophenyl)-2-fluoro-N-(4-methyl-3-(pyridin-4-yl)-1H-pyrazol-5-yl)propanamide]
The pIC50 of the first is higher: > 6.00 for the first, 5.00 to 6.00 for the second. The first is the more potent here.

First: Cc1c(-c2ccncc2)n[nH]c1NC(=O)C(F)Cc1cc(F)c(Cl)c(F)c1 (racemic) [Example 71, (rac)-3-(4-Chloro-3,5-difluorophenyl)-2-fluoro-N-(4-methyl-3-(pyridin-4-yl)-1H-pyrazol-5-yl)propanamide]
Second: Cc1c(-c2ccncc2)n[nH]c1N1C(=O)CC(c2ccc(Cl)cc2)CC1=O (racemic) [Example 157, (rac)-4-(4-Chlorophenyl)-1-(4-methyl-3-(pyridin-4-yl)-1H-pyrazol-5-yl)piperidine-2,6-dione]
The pIC50 of the first is higher: > 6.00 for the first, 5.00 to 6.00 for the second. The first is the more potent here.

First: Cc1c(NC(=O)C(O)Cc2ccc(Cl)cc2)cnn1-c1ccncc1 (racemic) [Example 150, (rac)-3-(4-Chlorophenyl)-2-hydroxy-N-(5-methyl-1-(pyridin-4-yl)-1H-pyrazol-4-yl)propanamide]
Second: CC(=O)N(C(=O)CCc1ccc(Cl)cc1)c1[nH]nc(-c2ccncc2)c1C [Example 1]
The pIC50 of the first is lower: 5.00 to 6.00 for the first, > 6.00 for the second. The second is the more potent here.

Compared with `Cc1c(-c2ccncc2)n[nH]c1N1C(=O)CC(Cc2ccc(Cl)cc2)C1=O` (racemic) [Example 154, (rac)-3-(4-Chlorobenzyl)-1-(4-methyl-3-(pyridin-4-yl)-1H-pyrazol-5-yl)pyrrolidine-2,5-dione], `O=C1CC(Cc2ccc(Cl)cc2)C(=O)N1c1cc(-c2ccncc2)n[nH]1` (racemic) [Example 156, (rac)-3-(4-Chlorobenzyl)-1-(3-(pyridin-4-yl)-1H-pyrazol-5-yl)pyrrolidine-2,5-dione] is higher in pIC50: 5.00 to 6.00 for the first, > 6.00 for the second. The second is the more potent here.

Compared with `O=C1CC(c2ccc(Cl)cc2)CC(=O)N1c1cc(-c2ccncc2)n[nH]1` (racemic) [Example 155, (rac)-4-(4-Chlorophenyl)-1-(3-(pyridin-4-yl)-1H-pyrazol-5-yl)piperidine-2,6-dione], `CCC(=O)N(C(=O)CCc1ccc(Cl)cc1)c1[nH]nc(-c2ccncc2)c1C` [Example 2, 3-(4-Chlorophenyl)-N-(4-methyl-3-(pyridin-4-yl)-1H-pyrazol-5-yl)-N-propionylproanamide] is lower in pIC50: > 6.00 for the first, 5.00 to 6.00 for the second. The first is the more potent here.

`Cc1c(-c2ccncc2)n[nH]c1N(C(=O)CCc1ccc(Cl)cc1)C(=O)CCc1ccc(Cl)cc1` [Example 3, 3-(4-Chlorophenyl)-N-(3-(4-chlorophenyl)propanoyl)-N-(4-methyl-3-(pyridin-4-yl)-1H-pyrazol-5-yl)propanamide] and `Cc1c(-c2ccncc2)n[nH]c1N(C(=O)CCc1ccc(Cl)cc1)C(=O)CCc1cccc(Cl)c1` [Example 4, 3-(3-Chlorophenyl)-N-(3-(4-chlorophenyl)propanoyl)-N-(4-methyl-3-(pyridin-4-yl)-1H-pyrazol-5-yl)propanamide] cannot be ordered by pIC50: > 6.00 for the first, > 6.00 for the second.

`Cc1c(-c2ccncc2)n[nH]c1N(C(=O)CCc1ccc(Cl)cc1)C(=O)CCc1ccccc1Cl` [Example 5, 3-(2-Chlorophenyl)-N-(3-(4-chlorophenyl)propanoyl)-N-(4-methyl-3-(pyridin-4-yl)-1H-pyrazol-5-yl)propanamide] and `Cc1c(-c2ccncc2)n[nH]c1N(C(=O)CCc1ccccc1)C(=O)CCc1ccc(Cl)cc1` [Example 6, 3-(4-Chlorophenyl)-N-(4-methyl-3-(pyridin-4-yl)-1H-pyrazol-5-yl)-N-(3-phenylpropanoyl)propanamide] cannot be ordered by pIC50: > 6.00 for the first, > 6.00 for the second.

`Cc1c(-c2ccncc2)n[nH]c1N(C(=O)CCc1ccc(Cl)cc1)C(=O)CCC(C)C` [Example 7, N-(3-(4-Chlorophenyl)propanoyl)-4-methyl-N-(4-methyl-3-(pyridin-4-yl)-1H-pyrazol-5-yl)pentanamide] showed a pIC50 of 5.00 to 6.00.
